Test results: patent US6443945B1, “Laser assisted pharmaceutical delivery and fluid removal” (Transmedica International, Inc., priority 1993, dated 2002)
Each block holds one molecule with its values, some of them ahead of it.

Key:
[1] = Topical alprostadil patch on laser-perforated penis skin; format: in vivo, human; conditions: three 2 mm spots, 5 J/cm^2; patch held 45 minutes
Excerpt: The duration of the pulse was approximately 300 μs. The spot size was approximately 2 mm, with an energy fluence of 5 J/cm^2. Single pulses were used. Three 2 mm diameter spots were created on a flaccid penis. Subsequent to ablation a pharmaceutical preparation of alprostadil (Caverject from Pharmacia & Upjohn, Kalamazoo, Mich.) was applied to a small patch consisting of tissue paper. The patch was applied to the multiple perforated areas of the skin on the then flaccid penis and held there with adhesive tape for 45 minutes. After approximately 35 minutes, the patient obtained an erection that was sustained for more than 1 hour.

[2] = In vivo blanching assay (chromameter skin redness) on laser-irradiated forearm spots; parameters: species or system human
Excerpt: In the case of the blanching assay, baseline skin color (redness) measurements were then taken of each spot using a Minolta CR-300 Chromameter (Minolta Inc., NJ). The Er:YAG laser was then used to ablate six 2 mm spots on one forearm, at energies of 40, 80 and 120 mJ. A spot (negative calorimeter control) directly adjacent to the laser irradiated spots remained untouched. Subsequently, a thin film of 1% hydrocortisone ointment was applied to six of the lased spots on the treatment arm. One untouched spot on the contralateral arm was administered a thin layer of Diprolene (β-methasone), which is a strong steroid that can permeate the intact stratum corneum in an amount sufficient to cause measurable skin blanching. An occlusive patch, consisting of simple plastic wrap, was fixed with gauze and dermatological tape over all sites on both arms and left in place for two hours, after which the administered steroids were gently removed with cotton swabs. […] Finally, the skin was clinically assessed for evidence of irritation at the 26 hour evaluation.

[3] = In vitro permeation study of tritiated water through lased human skin; format: in vitro ADME; conditions: 50 mJ (1.6 J/cm^2) to 1250 mJ (40 J/cm^2); increase at low fluences up to about 5 J/cm^2, then more-or-less constant
Excerpt: Histology studies on rat and human skin, irradiated either in vivo or in vitro, show little or no evidence of ablation when Er:YAG laser pulse energies less than about 100-200 mJ are used. (See, e.g., FIG. 25).

[4] = Permeation of radiolabelled corticosterone or DNA through laser-irradiated human skin in diffusion cells; format: in vitro ADME; conditions: 2 mm spot, donor removed after 15 minutes
Experimental: Pieces of human skin were placed in diffusion cells and irradiated with a single pulse of radiant energy produced by an Er:YAG laser. The spot size was 2 mm and the energy of the pulse was measured with a calibrated energy meter. After irradiation, the diffusion cells were placed in a 37 degrees Celsius heating block. Phosphate buffered saline was added to the receptor chamber below the skin and a small stir bar was inserted in the receptor chamber to keep the fluid continually mixed. Control skin was left unirradiated. Small volumes of radiolabelled compounds (either corticosterone or DNA) were then added to the donor chamber and left for 15 minutes before being removed (in the case of corticosterone) or were left for the entire duration of the experiment (in the case of the DNA). Samples were then taken from the receptor chamber at various times after application of the test compound and measured in a scintillation or gamma counter.

[5] = Permeation of radiolabelled drugs through Er:YAG laser-irradiated human skin in Franz diffusion cells; format: in vitro ADME
Excerpt: The output of the Er:YAG laser was passed through an aperture to define it's diameter as 2 mm. Human skin, purchased from a skin bank, was positioned in Franz diffusion cells. The receptor chamber of the cell was filled with 0.9% buffered saline. A single pulse, of measured energy, was used to irradiate the skin in separate diffusion cells. Control skin was left unirradiated. […] In the case of γ-interferon, a 285 mJ pulse was used, and multiple samples were irradiated. […] In the case of cortisone, either 77 mJ or 117 mJ was used. After irradiation, a stirring magnet was place in the receptor chamber of the diffusion cells and the cells were placed in a heating block held at 37° C. […] The donor was left on the skin for the duration of the experiment. At various times post-drug-application, samples were taken from the receptor chamber and the amount of drug present was assayed with either a gamma-counter, or a liquid scintillation counter.

Molecule: CCCCC[C@H](O)/C=C/[C@H]1[C@H](O)CC(=O)[C@@H]1CCCCCCC(=O)O [alprostadil]
duration of erection [1]: more than 1 hour | time to erection [1]: approximately 35 minutes

Molecule: C[C@]12CCC(=O)C=C1CC[C@@H]1[C@@H]2[C@@H](O)C[C@@]2(C)[C@H]1CC[C@]2(O)C(=O)CO [hydrocortisone]
erythema (reddening) of skin, chromameter measurements ([2]; 1% hydrocortisone ointment on spots lased at 40, 80, 120 mJ, occluded two hours, 2-26 hours post-irradiation): reddening was less than that seen in the control spots | clinical assessment for irritation ([2]; 26 hour evaluation): no problems were seen

Molecule: [3H]O[3H] [tritiated water]
permeation through lased human skin [3]: increase in permeation

permeation through irradiated skin versus unirradiated controls ([4]; 77 mJ/pulse (sub-ablative)): enhanced permeation | permeation through irradiated skin versus unirradiated controls ([4]; 117 mJ pulse): enhanced permeation
Molecule: C[C@]12C[C@H](O)[C@H]3[C@@H](CCC4=CC(=O)CC[C@@]43C)[C@@H]1CC[C@@H]2C(=O)CO [corticosterone]

Molecule: CCN(CC)CC(=O)Nc1c(C)cccc1C [Lidocaine, lidocaine]
pain on insertion of 26G-0.5 needle into lased site (30% liquid lidocaine solution applied topically for two minutes after 60 mJ pulse): no observable pain | pain on full insertion of 22G-1 needle into lased site (30% liquid lidocaine solution, 6-minute anesthetic treatment after 60 mJ pulse): no observable pain

B1: γ-Interferon: radiolabelled gamma-interferon diluted in buffered saline (protein, UniProt P01579 24-161, looked up)
Interferon gamma: QDPYVKEAENLKKYFNAGHSDVADNGTLFLGILKNWKEESDRKIMQSQIVSFYFKLFKNFKDDQSIQKSVETIKEDMNVKFFNSNKKKRDDFEKLTNYSVTDLNVQRKAIHELIQVMAELSPAAKTGKRKRSQMLFRG
modifications: radiolabel
notes: radiolabelled gamma-interferon diluted in buffered saline
Permeability Constant, kp [5]: 9.74 +/− 2.05 ×10^−3 cm/hr
